Laboratory results published in the supplement of paper PMC10307832.

How the values were obtained:
Test in all cases: relative viability (nuclei count vs DMSO), 5 days (fraction); higher = more cells survive
[1] = compound: Cc1ccc(NC(=O)c2ccc(CN3CCN(C)CC3)cc2)cc1Nc1nccc(-c2cccnc2)n1 [Imatinib]
Method in brief: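 Only plates meeting two conditions passed: control CV below 25% and at least one doubling. Lung cancer cell lines, kept overnight at 37 °C in 1536-well plates, were pinned with five library-drug doses (not always all listed) √10 apart on vehicle-anchored plates and grown 5 days without medium change. A one-step fix, permeabilisation and Hoechst stain preceded 4× imaging and MetaXpress nuclear counting. Viability equals treated-well nuclei divided by vehicle-well nuclei, as the median over plates.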

[2] = compound: Cc1ccc(NC(=O)c2ccc(CN3CCN(C)CC3)cc2)cc1Nc1nccc(-c2cccnc2)n1 [Imatinib] + C[C@@H](Oc1cc(-c2cnn(C3CCNCC3)c2)cnc1N)c1c(Cl)ccc(F)c1Cl [Crizotinib] (partner 1 µM)
Method in brief: (§1)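 Cells from lung cancer lines were seeded into 1536-well plates and, one day later, dosed by pin tool. Treatments were either a single drug or a fixed dose of an anchor drug with five library-drug doses (not always all listed) in √10 steps. After 5 days, nuclei were stained in a one-step fixation (final 0.05% Triton X-100, 1% formaldehyde, 1 ug/ml Hoechst) and counted on 4× images, and relative viability is the treated-to-vehicle nuclei ratio, as the median of duplicate plates.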

[3] = compound: Cc1ccc(NC(=O)c2ccc(CN3CCN(C)CC3)cc2)cc1Nc1nccc(-c2cccnc2)n1 [Imatinib] + O=C(c1cc(Cc2n[nH]c(=O)c3ccccc23)ccc1F)N1CCN(C(=O)C2CC2)CC1 [Olaparib] (partner 8 µM)
Method in brief: as §1

[4] = compound: Cc1ccc(NC(=O)c2ccc(CN3CCN(C)CC3)cc2)cc1Nc1nccc(-c2cccnc2)n1 [Imatinib] + Nc1ncn([C@H]2C[C@H](O)[C@@H](CO)O2)c(=O)n1 [Decitabine] (partner 2 µM)
Method in brief: as §1

Work on EMC-BAC-2 yielded a relative viability ([1]; 0.02 µM) of 1.03, a relative viability ([1]; 0.06325 µM) of 0.952 and a relative viability ([1]; 0.2 µM) of 1.13. It also gave a relative viability ([1]; 0.6325 µM) of 1.09, a relative viability ([1]; 2 µM) of 1.01 and a relative viability ([2]; first compound 0.02 µM) of 0.825. The relative viability ([2]; first compound 0.06325 µM) was 0.761, the relative viability ([2]; first compound 0.2 µM) was 0.872 and the relative viability ([2]; first compound 0.6325 µM) was 0.685. For the same cell line, the relative viability ([2]; first compound 2 µM) was 0.707, the relative viability ([3]; first compound 0.02 µM) was 0.465 and the relative viability ([3]; first compound 0.06325 µM) was 0.551. The relative viability ([3]; first compound 0.2 µM) was 0.474, the relative viability ([3]; first compound 0.6325 µM) was 0.592 and the relative viability ([3]; first compound 2 µM) was 0.486. The relative viability ([4]; first compound 0.02 µM) was 0.998, the relative viability ([4]; first compound 0.06325 µM) was 1.04 and the relative viability ([4]; first compound 0.6325 µM) was 1.07. For the same cell line, the relative viability ([4]; first compound 2 µM) was 0.936.

EPLC-272H was tested, and the relative viability ([1]; 0.02 µM) was 1.16, the relative viability ([1]; 0.2 µM) was 0.884 and the relative viability ([1]; 0.6325 µM) was 1.07. For the same cell line, the relative viability ([1]; 2 µM) was 0.87, the relative viability ([2]; first compound 0.02 µM) was 0.973 and the relative viability ([2]; first compound 0.2 µM) was 1.16. For the same cell line, the relative viability ([2]; first compound 2 µM) was 1.03, the relative viability ([3]; first compound 0.02 µM) was 0.669 and the relative viability ([3]; first compound 0.6325 µM) was 0.795. It also gave a relative viability ([3]; first compound 2 µM) of 0.732, a relative viability ([4]; first compound 0.02 µM) of 0.327 and a relative viability ([4]; first compound 0.6325 µM) of 0.408. For the same cell line, the relative viability ([4]; first compound 2 µM) was 0.33.

In the case of H3255, the relative viability ([1]; 0.02 µM) is reported as 1.05, the relative viability ([1]; 0.06325 µM) is reported as 0.749 and the relative viability ([1]; 0.2 µM) is reported as 0.893. The relative viability ([1]; 0.6325 µM) was 1.06, the relative viability ([1]; 2 µM) was 0.899 and the relative viability ([2]; first compound 0.02 µM) was 0.636. For the same cell line, the relative viability ([2]; first compound 0.2 µM) was 0.816, the relative viability ([2]; first compound 0.6325 µM) was 0.889 and the relative viability ([2]; first compound 2 µM) was 0.793. For the same cell line, the relative viability ([3]; first compound 0.02 µM) was 0.576, the relative viability ([3]; first compound 0.06325 µM) was 0.572 and the relative viability ([3]; first compound 0.2 µM) was 0.565. For the same cell line, the relative viability ([3]; first compound 0.6325 µM) was 0.566, the relative viability ([3]; first compound 2 µM) was 0.612 and the relative viability ([4]; first compound 0.02 µM) was 0.605. For the same cell line, the relative viability ([4]; first compound 0.2 µM) was 0.544, the relative viability ([4]; first compound 0.6325 µM) was 0.633 and the relative viability ([4]; first compound 2 µM) was 0.504.

HARA showed a relative viability ([1]; 0.02 µM) of 1.06, a relative viability ([1]; 0.2 µM) of 1.07 and a relative viability ([1]; 0.6325 µM) of 0.993. For the same cell line, the relative viability ([2]; first compound 0.02 µM) was 1.15, the relative viability ([2]; first compound 0.06325 µM) was 1.09 and the relative viability ([2]; first compound 0.2 µM) was 1.22. The relative viability ([2]; first compound 0.6325 µM) was 1.05, the relative viability ([2]; first compound 2 µM) was 1.08 and the relative viability ([3]; first compound 0.02 µM) was 0.408. For the same cell line, the relative viability ([3]; first compound 0.06325 µM) was 0.568, the relative viability ([3]; first compound 0.6325 µM) was 0.896 and the relative viability ([3]; first compound 2 µM) was 0.68. The relative viability ([4]; first compound 0.02 µM) was 0.584, the relative viability ([4]; first compound 0.06325 µM) was 0.518 and the relative viability ([4]; first compound 0.2 µM) was 0.503. The relative viability ([4]; first compound 0.6325 µM) was 0.473 and the relative viability ([4]; first compound 2 µM) was 0.579.

HCC-15 showed a relative viability ([1]; 0.02 µM) of 1.03, a relative viability ([1]; 0.2 µM) of 1.1 and a relative viability ([1]; 0.6325 µM) of 1.1. For the same cell line, the relative viability ([2]; first compound 0.02 µM) was 0.683, the relative viability ([2]; first compound 0.06325 µM) was 0.779 and the relative viability ([2]; first compound 0.2 µM) was 0.9. It also gave a relative viability ([2]; first compound 0.6325 µM) of 0.792, a relative viability ([2]; first compound 2 µM) of 0.817 and a relative viability ([3]; first compound 0.02 µM) of 0.773. For the same cell line, the relative viability ([3]; first compound 0.2 µM) was 0.719, the relative viability ([3]; first compound 0.6325 µM) was 0.791 and the relative viability ([3]; first compound 2 µM) was 0.742. For the same cell line, the relative viability ([4]; first compound 0.02 µM) was 0.605, the relative viability ([4]; first compound 0.06325 µM) was 0.598 and the relative viability ([4]; first compound 0.2 µM) was 0.638. For the same cell line, the relative viability ([4]; first compound 0.6325 µM) was 0.677 and the relative viability ([4]; first compound 2 µM) was 0.524.

Cell Line HCC-44 has a relative viability ([1]; 0.02 µM) of 0.998, a relative viability ([1]; 0.06325 µM) of 0.945 and a relative viability ([1]; 0.2 µM) of 1.12. It also gave a relative viability ([1]; 2 µM) of 0.893, a relative viability ([2]; first compound 0.02 µM) of 0.921 and a relative viability ([2]; first compound 0.06325 µM) of 0.841. It also gave a relative viability ([2]; first compound 0.2 µM) of 0.911, a relative viability ([2]; first compound 0.6325 µM) of 0.841 and a relative viability ([2]; first compound 2 µM) of 0.712. It also gave a relative viability ([3]; first compound 0.02 µM) of 0.956, a relative viability ([3]; first compound 0.6325 µM) of 1.02 and a relative viability ([3]; first compound 2 µM) of 0.967. For the same cell line, the relative viability ([4]; first compound 0.02 µM) was 0.967, the relative viability ([4]; first compound 0.2 µM) was 0.954 and the relative viability ([4]; first compound 0.6325 µM) was 0.971. The relative viability ([4]; first compound 2 µM) was 0.899.

HCC-78 was tested, and the relative viability ([1]; 0.02 µM) was 0.901, the relative viability ([1]; 0.06325 µM) was 0.797 and the relative viability ([1]; 0.2 µM) was 1.06. The relative viability ([1]; 0.6325 µM) was 0.89, the relative viability ([1]; 2 µM) was 0.904 and the relative viability ([2]; first compound 0.02 µM) was 0.334. It also gave a relative viability ([2]; first compound 0.06325 µM) of 0.344, a relative viability ([2]; first compound 0.2 µM) of 0.36 and a relative viability ([2]; first compound 0.6325 µM) of 0.314. For the same cell line, the relative viability ([2]; first compound 2 µM) was 0.322, the relative viability ([3]; first compound 0.02 µM) was 0.564 and the relative viability ([3]; first compound 0.06325 µM) was 0.688. It also gave a relative viability ([3]; first compound 0.2 µM) of 1.09, a relative viability ([3]; first compound 0.6325 µM) of 0.885 and a relative viability ([3]; first compound 2 µM) of 0.999. The relative viability ([4]; first compound 0.02 µM) was 0.644, the relative viability ([4]; first compound 0.06325 µM) was 0.7 and the relative viability ([4]; first compound 0.2 µM) was 0.715. The relative viability ([4]; first compound 0.6325 µM) was 0.721 and the relative viability ([4]; first compound 2 µM) was 0.71.

Cell Line HCC-366 has a relative viability ([1]; 0.02 µM) of 0.978, a relative viability ([1]; 0.06325 µM) of 0.856 and a relative viability ([1]; 0.2 µM) of 1.06. The relative viability ([1]; 0.6325 µM) was 1.07, the relative viability ([1]; 2 µM) was 0.988 and the relative viability ([2]; first compound 0.02 µM) was 1.19. For the same cell line, the relative viability ([2]; first compound 0.2 µM) was 0.777, the relative viability ([2]; first compound 0.6325 µM) was 0.334 and the relative viability ([2]; first compound 2 µM) was 0.399. It also gave a relative viability ([3]; first compound 0.02 µM) of 0.427, a relative viability ([3]; first compound 0.06325 µM) of 0.336 and a relative viability ([3]; first compound 0.2 µM) of 0.389. The relative viability ([3]; first compound 0.6325 µM) was 0.335, the relative viability ([3]; first compound 2 µM) was 0.346 and the relative viability ([4]; first compound 0.02 µM) was 0.324. The relative viability ([4]; first compound 0.06325 µM) was 0.366, the relative viability ([4]; first compound 0.2 µM) was 0.356 and the relative viability ([4]; first compound 0.6325 µM) was 0.374. It also gave a relative viability ([4]; first compound 2 µM) of 0.329.

HCC-827 was tested, and the relative viability ([1]; 0.06325 µM) was 1.04, the relative viability ([1]; 0.6325 µM) was 1.05 and the relative viability ([1]; 2 µM) was 1.03. It also gave a relative viability ([2]; first compound 0.02 µM) of 0.954, a relative viability ([2]; first compound 0.06325 µM) of 0.889 and a relative viability ([2]; first compound 0.2 µM) of 0.91. It also gave a relative viability ([2]; first compound 2 µM) of 0.973, a relative viability ([3]; first compound 0.02 µM) of 0.741 and a relative viability ([3]; first compound 0.06325 µM) of 0.724. For the same cell line, the relative viability ([3]; first compound 0.2 µM) was 0.762, the relative viability ([3]; first compound 0.6325 µM) was 0.639 and the relative viability ([3]; first compound 2 µM) was 0.628. The relative viability ([4]; first compound 0.02 µM) was 0.31, the relative viability ([4]; first compound 0.06325 µM) was 0.32 and the relative viability ([4]; first compound 0.2 µM) was 0.311. For the same cell line, the relative viability ([4]; first compound 0.6325 µM) was 0.36 and the relative viability ([4]; first compound 2 µM) was 0.307.
